In PubChem BioAssay (NCI):
Several values for one entry are separate records, joined by “and”; a condition that tells them apart may be missing. Identical values can stand only once.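 Exposure lasted 48 hours, with cells grown in 96-well plates and compounds tested at five concentrations. GI50 = concentration required for 50% inhibition of growth. TGI: concentration producing complete growth inhibition.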

Columns and labels:
Assay in all cases: NCI anticancer screen, dose series, 48 h
DU-145 prostate = system: DU-145 prostate
HCC-2998 colon = system: HCC-2998 colon
PC-3 prostate = system: PC-3 prostate
OVCAR-8 ovarian = system: OVCAR-8 ovarian
OVCAR-5 ovarian = system: OVCAR-5 ovarian
UO-31 renal = system: UO-31 renal
RXF 393 renal = system: RXF 393 renal
MDA-N = system: MDA-N
K-562 leukemia = system: K-562 leukemia
NCI/ADR-RES ovarian = system: NCI/ADR-RES ovarian
CAKI-1 renal = system: CAKI-1 renal
A549 NSCLC = system: A549 NSCLC
A498 renal = system: A498 renal
ACHN renal = system: ACHN renal
HS 578T breast = system: HS 578T breast
SF-295 CNS = system: SF-295 CNS
SN12C renal = system: SN12C renal
IGROV1 ovarian = system: IGROV1 ovarian
SK-MEL-5 melanoma = system: SK-MEL-5 melanoma
M14 melanoma = system: M14 melanoma
KM12 colon = system: KM12 colon
MDA-MB-435 = system: MDA-MB-435
U251 CNS = system: U251 CNS
MDA-MB-231 breast = system: MDA-MB-231 breast
HOP-62 NSCLC = system: HOP-62 NSCLC
UACC-257 melanoma = system: UACC-257 melanoma
OVCAR-4 ovarian = system: OVCAR-4 ovarian
NCI-H226 lung = system: NCI-H226 lung
SF-539 CNS = system: SF-539 CNS
CCRF-CEM leukemia = system: CCRF-CEM leukemia
SNB-75 CNS = system: SNB-75 CNS
UACC-62 melanoma = system: UACC-62 melanoma
NCI-H23 lung = system: NCI-H23 lung
SK-OV-3 ovarian = system: SK-OV-3 ovarian
HT29 colon = system: HT29 colon
SNB-19 CNS = system: SNB-19 CNS
HOP-92 NSCLC = system: HOP-92 NSCLC
OVCAR-3 ovarian = system: OVCAR-3 ovarian
NCI-H522 lung = system: NCI-H522 lung
SW-620 colon = system: SW-620 colon
COLO 205 colon = system: COLO 205 colon
MCF7 breast = system: MCF7 breast
MOLT-4 leukemia = system: MOLT-4 leukemia
HCT-15 colon = system: HCT-15 colon
T-47D breast = system: T-47D breast
EKVX NSCLC = system: EKVX NSCLC
HL-60(TB) leukemia = system: HL-60(TB) leukemia
HCT-116 colon = system: HCT-116 colon
BT-549 breast = system: BT-549 breast
SK-MEL-28 melanoma = system: SK-MEL-28 melanoma
RPMI-8226 leukemia = system: RPMI-8226 leukemia
TK-10 renal = system: TK-10 renal
LOX IMVI melanoma = system: LOX IMVI melanoma
SF-268 CNS = system: SF-268 CNS
NCI-H460 lung = system: NCI-H460 lung
SK-MEL-2 melanoma = system: SK-MEL-2 melanoma
786-0 renal = system: 786-0 renal
MALME-3M melanoma = system: MALME-3M melanoma

COC(=O)[C@H](Cc1ccccc1)NC(=O)[C@H](Cc1ccccc1)NC(=O)CN1C(=O)[C@@H]2C3C=CC(C3)[C@@H]2C1=O
TGI (DU-145 prostate): 39.1 µM and 34.2 µM | TGI (HCC-2998 colon): 30.8 µM and 31 µM | TGI (PC-3 prostate): 29 µM and 30 µM | TGI (OVCAR-8 ovarian): 27.9 µM and 33.8 µM | TGI (OVCAR-5 ovarian): 43.1 µM and 41.7 µM | TGI (UO-31 renal): 42.3 µM and 32.1 µM | TGI (RXF 393 renal): 36.2 µM and 35 µM | TGI (MDA-N): 30.2 µM and 30.9 µM | GI50 (K-562 leukemia): 7.26 µM and 17.5 µM | TGI (K-562 leukemia): 36.2 µM and 42.2 µM | TGI (NCI/ADR-RES ovarian): 53.9 µM and > 100 µM | TGI (CAKI-1 renal): 30.6 µM and 35.1 µM | TGI (A549 NSCLC): 45.9 µM and 44.1 µM | TGI (A498 renal): 31.3 µM and 53 µM | TGI (ACHN renal): 29.7 µM and 30.4 µM | TGI (HS 578T breast): 38.2 µM and 38 µM | TGI (SF-295 CNS): 35.5 µM and 36.6 µM | TGI (SN12C renal): 32.9 µM and 30.6 µM | TGI (IGROV1 ovarian): 25.5 µM and 30.4 µM | TGI (SK-MEL-5 melanoma): 28.3 µM and 32.1 µM | TGI (M14 melanoma): 41.4 µM and 40.4 µM | TGI (KM12 colon): 33.9 µM and 41.7 µM | TGI (MDA-MB-435): 28.7 µM and 32 µM | TGI (U251 CNS): 30 µM and 33.2 µM | TGI (MDA-MB-231 breast): 31.5 µM and 32.4 µM | TGI (HOP-62 NSCLC): 38.5 µM and 39.8 µM | TGI (UACC-257 melanoma): 30.9 µM and 33.6 µM | TGI (OVCAR-4 ovarian): 31.2 µM and 37.5 µM | TGI (NCI-H226 lung): 38.5 µM and 39.1 µM | TGI (SF-539 CNS): 32 µM and 33.3 µM | GI50 (CCRF-CEM leukemia): 7.9 µM and 19.9 µM | TGI (CCRF-CEM leukemia): 39.1 µM and 57.3 µM | TGI (SNB-75 CNS): 34 µM and 33.7 µM | TGI (UACC-62 melanoma): 30 µM and 30.2 µM | TGI (NCI-H23 lung): 32.1 µM and 33 µM | TGI (SK-OV-3 ovarian): 31.7 µM | TGI (HT29 colon): 38.4 µM and 42.1 µM | TGI (SNB-19 CNS): 36.6 µM and 39.9 µM | TGI (HOP-92 NSCLC): 33.3 µM and 36.1 µM | TGI (OVCAR-3 ovarian): 33.1 µM and 37 µM | TGI (NCI-H522 lung): 27.8 µM and 31.8 µM | TGI (SW-620 colon): 40.8 µM and 48.5 µM | TGI (COLO 205 colon): 29.7 µM and 30.9 µM | TGI (MCF7 breast): 34.1 µM and 31.7 µM | TGI (MOLT-4 leukemia): 5.2 µM and 8.67 µM | TGI (HCT-15 colon): 31.2 µM and 33.1 µM | TGI (T-47D breast): 47.2 µM and 49 µM | TGI (EKVX NSCLC): 35.1 µM and 37.3 µM | TGI (HL-60(TB) leukemia): 40.8 µM and 33.5 µM | TGI (HCT-116 colon): 27.3 µM and 30.2 µM | TGI (BT-549 breast): 32.1 µM and 30.2 µM | TGI (SK-MEL-28 melanoma): 35 µM and 35.7 µM | TGI (RPMI-8226 leukemia): 38.3 µM and 52 µM | TGI (TK-10 renal): 31.2 µM and 38.6 µM | TGI (LOX IMVI melanoma): 33.3 µM and 32.2 µM | TGI (SF-268 CNS): 26.3 µM and 31.5 µM | TGI (NCI-H460 lung): 42.6 µM and 46.3 µM | TGI (SK-MEL-2 melanoma): 33 µM and 34.5 µM | TGI (786-0 renal): 27.2 µM and 28.8 µM

CC(NC(=O)C(C)C(=O)Nc1ccc(C(F)(F)F)cc1)C(N)=O (stereo not drawn)
TGI (DU-145 prostate): > 100 µM | TGI (PC-3 prostate): > 100 µM | TGI (OVCAR-8 ovarian): > 100 µM | TGI (OVCAR-5 ovarian): > 100 µM | TGI (UO-31 renal): > 100 µM | TGI (RXF 393 renal): > 100 µM | TGI (MDA-N): > 100 µM | TGI (K-562 leukemia): > 100 µM | TGI (NCI/ADR-RES ovarian): > 100 µM | TGI (CAKI-1 renal): > 100 µM | TGI (A549 NSCLC): > 100 µM | TGI (ACHN renal): > 100 µM | TGI (HS 578T breast): > 100 µM | TGI (SF-295 CNS): > 100 µM | TGI (SN12C renal): > 100 µM | TGI (IGROV1 ovarian): > 100 µM | TGI (SK-MEL-5 melanoma): > 100 µM | TGI (M14 melanoma): > 100 µM | TGI (KM12 colon): > 100 µM | TGI (MDA-MB-435): > 100 µM | TGI (U251 CNS): > 100 µM | TGI (MDA-MB-231 breast): > 100 µM | TGI (UACC-257 melanoma): > 100 µM | TGI (NCI-H226 lung): > 100 µM | TGI (SF-539 CNS): > 100 µM | TGI (CCRF-CEM leukemia): > 100 µM | TGI (SNB-75 CNS): > 100 µM | TGI (UACC-62 melanoma): > 100 µM | TGI (NCI-H23 lung): > 100 µM | TGI (SK-OV-3 ovarian): > 100 µM | TGI (HT29 colon): > 100 µM | TGI (SNB-19 CNS): > 100 µM | TGI (HOP-92 NSCLC): > 100 µM | TGI (NCI-H522 lung): > 100 µM | TGI (SW-620 colon): > 100 µM | TGI (COLO 205 colon): > 100 µM | TGI (MCF7 breast): > 100 µM | TGI (HCT-15 colon): > 100 µM | TGI (T-47D breast): > 100 µM | TGI (MALME-3M melanoma): > 100 µM | TGI (EKVX NSCLC): > 100 µM | TGI (HL-60(TB) leukemia): > 100 µM | TGI (HCT-116 colon): > 100 µM | TGI (BT-549 breast): > 100 µM | TGI (RPMI-8226 leukemia): > 100 µM | TGI (SF-268 CNS): > 100 µM | TGI (NCI-H460 lung): > 100 µM | TGI (SK-MEL-2 melanoma): > 100 µM | TGI (786-0 renal): > 100 µM
